Legend:
Assay in all cases: Ellman assay, […] nm, head homogenate
Assay type in all cases: biochemical, Haematobia irritans
[1] = target: T1, acetylcholinesterase (AChE), Ona field population; details: 0.4 mM acetylthiocholine, pH 7.8 phosphate, 25 °C, 10 min preincubation; covalent; stated gain
T1 construct: gene Ace; native enzyme in homogenate of five pooled fly heads; mixed genotypes, G262A in a small part of the flies, other mutations not screened

[2] = target: T2, acetylcholinesterase (AChE), Labelle field population; details: 0.4 mM acetylthiocholine, pH 7.8 phosphate, 25 °C, 10 min preincubation; covalent
T2 construct: gene Ace; native enzyme in homogenate of five pooled fly heads

[3] = target: T3, acetylcholinesterase (AChE), BTU field population; details: 0.4 mM acetylthiocholine, pH 7.8 phosphate, 25 °C, 10 min preincubation; covalent
T3 construct: gene Ace; native enzyme in homogenate of five pooled fly heads; mixed genotypes, G262A in a small part of the flies, other mutations not screened

[4] = target: T4, acetylcholinesterase (AChE), Kerrville susceptible strain; details: 0.4 mM acetylthiocholine, pH 7.8 phosphate, 25 °C, 10 min preincubation; covalent
T4 construct: gene Ace; not purified; G262A absent in this strain

SMILES: CCOP(=O)(OCC)Oc1cc(C)nc(C(C)C)n1 [diazoxon]
- IC50 [1]: 20.5 nM
- IC50 [2]: 9.2 nM
- IC50 [3]: 6.1 nM
- IC50 [4]: 8.2 nM

— paper PMC6023543, “Resistance to Permethrin, β-cyfluthrin, and Diazinon in Florida Horn Fly Populations” (Insects, 2018)
